Reference: patent US9475841B2, “Melanoma antigen peptide and uses thereof” (INSERM (INSTITUT NATIONAL DE LA SANTE ET DE LA RECHERCHE …, priority 2012, dated 2016)

Key:
Assay in all cases: Cytokine profile of CD4 T cell clone stimulated with cognate peptide (intracellular staining)
Type in all cases: cell-based, human
Settings in all cases: cognate peptide 10 μM, 5 hours
[1] = system: CD4 T cell clone 9C12-DQβ*0202
Protocol: (§1) Lymphocytes were stimulated for 5 hours in the presence of brefeldin A (10 μg/mL) either with peptide alone (10 μM) in an autopresentation assay or with B-EBV or HLA-class II expressing melanoma cells pulsed 2 hours with the cognate peptide, at a ratio 1:2. In some experiments, blocking mAb against HLA-DP (clone B7.21 from Dr Charron, UMR940, Paris), HLA-DQ (clone SPVL3, Beckman Coulter) or HLA-DR (clone L243, BD Biosciences) were added at a concentration of 12.5 μg/ml. Cells were then stained with APC-conjugated anti-CD4 mAb, fixed with 4% paraformaldehyde, labeled with PE-conjugated anti-cytokine mAb and analyzed by flow cytometry.
(§2) We also documented the T helper profile of each T cell clone, by stimulating the CD4 T cell clones with the cognate peptide, and analyzing cytokine production. All the clones expressed Th1 cytokines (TNFα, IFNγ, IL2 and GM-CSF). On the contrary, these clones differ in their expression of Th2 cytokines. Indeed, the two DQ2 restricted T cell clones (9C12 and 4E2) and the DR1 restricted one (5F9) also strongly express two Th2 cytokines (IL4, and IL13), whereas the DR11-restricted T cell clone only weakly expressed IL4 (Table IV). None of the CD4 T cell expresses IL10 or IL5 at a significant level.

[2] = system: CD4 T cell clone 5F9-DRβ1*0101
Protocol: as §1, §2

[3] = system: CD4 T cell clone 1A5-DRβ1*1101
Protocol: as §1, §2

Sequence: SCVGYPDEATSREQFLPSEG (SCVGYPDEATSREQFLPSEC) [MELOE-12-21]
- Cytokine profile: GM-CSF [1]: GM-CSF^high
- Cytokine profile: IFN [1]: IFN^high
- Cytokine profile: IL2 [1]: IL2^high
- Cytokine profile: IL4 [1]: IL4^high
- Cytokine profile: IL5 [1]: IL5^high
- Cytokine profile: IL10 [1]: IL10^neg
- Cytokine profile: IL13 [1]: IL13^high
- Cytokine profile: TNF [1]: TNF^high

Sequence: TSREQFLPSEGAACPPWHPS [MELOE-111-30]
- Cytokine profile: GM-CSF [2]: GM-CSF^high
- Cytokine profile: IFN [2]: IFN^high
- Cytokine profile: IL2 [2]: IL2^low
- Cytokine profile: IL4 [2]: IL4^high
- Cytokine profile: IL5 [2]: IL5^neg
- Cytokine profile: IL10 [2]: IL10^neg
- Cytokine profile: IL13 [2]: IL13^high
- Cytokine profile: TNF [2]: TNF^high
- Cytokine profile: GM-CSF [3]: GM-CSF^high
- Cytokine profile: IFN [3]: IFN^high
- Cytokine profile: IL2 [3]: IL2^high
- Cytokine profile: IL4 [3]: IL4^low
- Cytokine profile: IL5 [3]: IL5^neg
- Cytokine profile: IL10 [3]: IL10^neg
- Cytokine profile: IL13 [3]: IL13^neg
- Cytokine profile: TNF [3]: TNF^high
